Data reported in article PMC4663518, “Cytotoxic Indole Alkaloids against Human Leukemia Cell Lines from the Toxic Plant Peganum harmala” (Toxins, 2015).

Key:
HEL cells = assay: MTT cytotoxicity assay, HEL; type: cell-based, human; details: 48 h, Mean ± SD
Procedure: (§1) Cytotoxicity was measured by the MTT assay.

HL-60 cells = assay: MTT cytotoxicity assay, HL-60; type: cell-based, human; details: Mean ± SD
Procedure: as §1

KG1 cells = assay: MTT cytotoxicity assay, KG1; type: cell-based, human; details: Mean ± SD
Procedure: as §1

U-937 cells [1] = assay: MTT cytotoxicity assay, U-937; type: cell-based, human; details: Mean ± SD
Procedure: as §1

in vitro = details: human
Procedure: (§10) Meanwhile, the cytotoxicity against human embryonic kidney cells (HEK-293) was evaluated for their toxic selectivity.
(§11) Human leukemia cell lines (U-937, HL-60, KG1 and HEL) and human embryonic kidney cells (HEK-293) were purchased from American Type Culture Collection (ATCC) (Manassas, VA, USA). Cells were cultured in RPMI 1640 supplemented with 10% fetal bovine serum (Gibco Life Technologies, Grand Island, NY, USA), 50 U/mL penicillin and 100 μg/mL streptomycin and maintained in a humidified atmosphere containing 5% CO2 at 37 °C. Penicillin and streptomycin were purchased from Hyclone (Logan, UT, USA).
(§12) Cytotoxicity was measured by the MTT assay. Briefly, cells were cultured in RPMI 1640 supplemented with 10% fetal bovine serum, 10 mmol/L Hepes, 50 units/mL penicillin, 50 μg/mL streptomycin, and 100 μg /mL gentamicin and were maintained at 37 °C in 5% CO2. A total of 2.5 × 10^4 cells in growth media were placed in each well of a 96-well flat-bottom plate. After 12 h of incubation, the growth medium was replaced by media containing different concentrations of the test samples. Cytotoxicity was determined at 48 h from the MTT absorbance (490 nm) reading for each concentration compared to the control. At least three replications for each sample were used to determine the cytotoxicity.

[2] = MTT cytotoxicity assay, HEK-293 (toxic selectivity); details: human, HEK-293 cells, IC50 HEK-293, MTT, Mean ± SD
Procedure: as §10, §11, §12

U-937 cells [3] = assay: Hoechst 33258 staining, apoptotic morphology; type: cell-based, human; details: 2.0 μmol/L, 24 h
Excerpt: Based on the cytotoxic results, compound 8 (HMC) has pronounced cytotoxicity against human leukemia cells, especially to U-937 cells. Therefore, it was worthy of investigating the cytotoxic mechanism of HMC in U-937 cell death. To elucidate the characteristics of HMC-induced U-937 cells, morphologic changes were examined.
(§2) Figure 2 HMC initiated apoptosis in U-937 cells through mitochondrial and Caspase cascade. (A) Apoptotic U-937 cells were observed after the cells were stained by Hoechst 33258. (B) Mitochondrial transmembrane potential was reduced in U-937 cells stained by Rodamine123. […] (D–F) HMC impacted the mRNA levels and protein expressions of Bax and Bcl-2 in U-937 cells leading to the activation of caspase 3. Data are presented as means ± SD of three independent tests. * p < 0.05 versus control, ** p < 0.01 versus control.

Ras = assay: Western blot Ras in U-937 cells; type: cell-based, human; details: 2.0 µmol/L, 0, 24 and 48 h
Excerpt: (§3) Unusual activation of Ras/Raf/MAPK signaling pathway is one of main characteristic of human cancer. In this study, the Ras/Raf/MAPK pathway was investigated in HMC-induced U-937 cell apoptosis. Genistein, a broad-spectrum inhibitor of protein tyrosine kinases (PTKs), was used to detect the cell viability after HMC treatment. […] Moreover, the expressions of Ras/Raf/ERK in U-937 cells were detected after HMC treatment in different time courses.
(§4) Figure 3 Apoptosis via Ras/Raf/ERK signaling pathway in U-937 cells after HMC treatment. (A) Cell viability was assessed using MTT method in U-937 cells after pretreated by 10 µmol/L Genistein for 1 h, and then the cells were incubated without or with 2.0 µmol/L HMC for 48 h. […] Data are presented as means ± SEM of three independent tests. * p < 0.05 versus control, ** p < 0.01 versus control.
(§5) U-937 cells were treated with 2.0 µmol/L HMC for 0, 24 and 48 h, respectively. […] After 14,000× g centrifugation for 15 min, the protein content of supernatant was determined by the Bio-Rad DC protein assay (Bio-Rad Laboratories, Hercules, CA, USA). […] Proteins were detected using primary antibodies, followed by HRP-conjugated secondary antibody. Labeling was detected using the ECL system (Amersham Biosciences Corp., Piscataway, NJ, USA).

Bax = assay: Western blot Bax in U-937 cells; type: cell-based, human; details: 2.0 µmol/L, 24 h
Procedure: (§6) Since Bcl-2 family members were critical regulators of the mitochondrial pathway that induced intrinsic caspase activation, RT-PCR was applied to detect the mRNA level of Bax and Bcl-2 in HMC-treated U-937 cells. […] Meanwhile, Western blot analyses were carried out to observe the expressions of Bcl-2 and Bax.
(§7) U-937 cells were treated with 2.0 µmol/L HMC for 0, 24 and 48 h, respectively. The whole cells were collected, and then the cell pellets were resuspended with RIPA buffer that contained a mixture of protease inhibitors at 4 °C for 30 min. After 14,000× g centrifugation for 15 min, the protein content of supernatant was determined by the Bio-Rad DC protein assay (Bio-Rad Laboratories, Hercules, CA, USA). […] Proteins were detected using primary antibodies, followed by HRP-conjugated secondary antibody. Labeling was detected using the ECL system (Amersham Biosciences Corp., Piscataway, NJ, USA).

p-ERK1/2 = assay: Western blot p-ERK1/2 in U-937 cells; type: cell-based, human; details: 2.0 µmol/L, 0, 24 and 48 h
Excerpt: as §3, §4, §5

Bcl-2 mRNA = assay: RT-PCR Bcl-2 mRNA in U-937 cells; type: cell-based, human; details: 2.0 µmol/L, 24 h
Procedure: as §6
(§8) Total RNA extraction for leukemia cells was performed by using Trizol method. U-937 cells were seeded in 6 well plates for 24 h, and then the cells were treated by 2.0 µmol/L HMC for another 24 h. After treatment, the cells were collected for RNA extraction. The forward and reversed primers of Bax were […] and […]. The forward and reversed primers of Bcl-2 were […] and […]. The forward and reversed primers of GAPDH were […] and […]. The reaction was conducted under the conditions with 94 °C for 30 s, 95 °C for 5 s, 62 °C for 30 s, 72 °C for 30 s for 30 cycles. Identity of the PCR-products was controlled by melting curve analysis. Standard curves were prepared from isolated PCR products by serial dilution. Data were normalized towards GAPDH expression and statistically analyzed.

Bcl-2 = assay: Western blot Bcl-2 in U-937 cells; type: cell-based, human; details: 2.0 µmol/L, 24 h
Procedure: as §6, §7

Bax mRNA = assay: RT-PCR Bax mRNA in U-937 cells; type: cell-based, human; details: 2.0 µmol/L, 24 h
Procedure: as §6, §8

Caspase 3 = Caspase 3 activation in U-937 cells; type: cell-based, human; details: 2.0 μmol/L, 24 h
Procedure: as §6, §7

U-937 cells [4] = assay: ATP luminescence level; type: cell-based, human; details: 2.0 μmol/L, 24 h
Procedure: (§9) To make it clear whether HMC-induce apoptosis was related to mitochondrial function, mitochondrial transmembrane potential was assessed using Rhodamine 123. […] Meanwhile, the ATP level of mitochondria was measured in U-937 cells treated by HMC.
ATP luminescence was detected according to the manufactured information to evaluate the mitochondrial damage after 2.0 µmol/L HMC insulting. U-937 cells were treated without or with HMC for 24 h. After incubation, equilibrate the plates and its contents at room temperature for 30 min. One hundred microliters of cell titer reagent was added to each well in a 96-well plate and the plate was shaken gently for 2 min to induce cell lysis. The plate was incubated at room temperature for 10 min to stabilize luminescent signal and then record luminescence.

p-Raf = assay: Western blot p-Raf in U-937 cells; type: cell-based, human; details: 2.0 µmol/L, 0, 24 and 48 h
Excerpt: as §3, §4, §5

U-937 cells [5] = assay: Mitochondrial transmembrane potential, Rhodamine 123; type: cell-based, human; details: Rhodamine 123, compared with the control group
Excerpt: as §2, §9

total ERK = assay: Western blot total ERK in U-937 cells; type: cell-based, human; details: 2.0 µmol/L, 0, 24 and 48 h
Excerpt: as §3, §4, §5

[6] = system: human embryonic kidney cells HEK-293; assay: MTT cytotoxicity assay, HEK-293 (toxic selectivity); details: read-out: IC50 HEK-293; MTT, 48 h, Mean ± SD
Procedure: as §10, §11, §12

U-937 cells [7] = assay: MTT cell viability, genistein pretreatment plus HMC; type: cell-based, human; details: 10 µmol/L Genistein pretreatment 1 h, then 2.0 µmol/L HMC 48 h
Excerpt: as §3, §4

| Compound | IC50 at 48 h (in vitro) [µM] | IC50 (HEL cells; Homo sapiens, HEL) [µM] | IC50 (HL-60 cells; Homo sapiens, HL-60, 48 h) [µM] | IC50 (KG1 cells; Homo sapiens, KG-1, 48 h) [µM] | IC50 (U-937 cells [1]; Homo sapiens, U-937, 48 h) [µM] | further results |
| --- | --- | --- | --- | --- | --- | --- |
| N.N.[Cl][Pt][Cl] [Cisplatin, cisplatin, reference compound] |  |  |  |  |  | IC50 (HEL cells): 7.7 ± 0.2 µM; IC50 (HL-60 cells; 48 h): 13.5 ± 0.4 µM; IC50 (KG1 cells; 48 h): 4.1 ± 0.3 µM; IC50 (U-937 cells [1]; 48 h): 6.3 ± 0.5 µM |
| OC[C@H]1O[C@@H](OCCc2c[nH]c3ccccc23)[C@H](O)[C@@H](O)[C@@H]1O [Compound 1, 2-(indol-3-yl)ethyl-β-D-glucopyranoside] | > 200 | 121 ± 5.5 | 78.9 ± 3.8 | 23.1 ± 1.4 | 52.1 ± 2.6 |  |
| C[C@@H]1O[C@@H](OC[C@H]2O[C@@H](OCCc3c[nH]c4ccccc34)[C@H](O)[C@@H](O)[C@@H]2O)[C@H](O)[C@H](O)[C@H]1O [Compound 2, 2-(indol-3-yl)ethyl-α-L-rhamnopyranosyl-(1 → 6)-β-D-glucopyranoside] | > 200 | 131 ± 4.9 | 55.3 ± 3.4 | 60.2 ± 2.7 | 80.2 ± 4.5 |  |
| COc1ccc2c(c1)NC(=O)[C@]2(O)CCNC(C)=O [Compound 3, (S)-3-hydroxy-3-(N-acetyl-2-aminoethyl)-6-methoxyindol-2-one] | 122 ± 5.7 | 55.3 ± 3.2 | 36.2 ± 1.1 | > 200 | 75.3 ± 2.8 |  |
| COc1ccc2c(c1)[nH]c1c(C)nccc12 [Compound 5, harmine] |  | 20.3 ± 1.1 | 71.2 ± 3.3 | 62.7 ± 2.8 | 23.1 ± 0.9 | IC50 at 48 h [2]: > 200 µM |
| COc1ccc2c([nH]c3c(C)nccc32)c1O[C@@H]1O[C@H](CO)[C@@H](O)[C@H](O)[C@H]1O [Compound 6, ruin] | > 200 | 71.6 ± 2.7 | 60.7 ± 2.9 | 44.5 ± 2.1 | 30.6 ± 1.2 |  |
| COC(=O)c1nccc2c1[nH]c1cc(OC)ccc12 [Compound 7, harmic acid methyl ester] | 164 ± 8.1 | 35.2 ± 2.8 | 44.3 ± 2.1 | 56.8 ± 2.5 | 22.3 ± 1.4 |  |
| COc1ccc2c3c([nH]c2c1)C=NCC3 [Compound 8, harmalacidine] |  | 25.7 ± 1.1 | 61.3 ± 2.8 | 32.6 ± 1.7 | 3.1 ± 0.2 | morphologic alterations of cell apoptosis (membrane blebbing, nuclear condensation, granular apoptotic bodies) (U-937 cells [3]): characteristic morphologic alterations of cell apoptosis were observed; expression of Ras (Ras): down-regulate; expression of pro-apoptotic Bax (Bax): began to increase; expression of p-ERK1/2 (p-ERK1/2): down-regulate; Bcl-2 mRNA level (Bcl-2 mRNA): reduce; expression of anti-apoptotic Bcl-2 (Bcl-2): began to decrease; Bax mRNA level (Bax mRNA): increase; Caspase 3 activation (Caspase 3): activated; ATP level (U-937 cells [4]): reduce; expression of p-Raf (p-Raf): down-regulate; mitochondrial transmembrane potential (U-937 cells [5]): obviously reduced; total ERK (total ERK): kept no change; IC50 at 48 h [2]: > 200 µM |
| COc1ccc2c3c([nH]c2c1)C(C)=NCC3 [Compound 9, harmaline] |  | 20.1 ± 1.2 | 55.3 ± 2.4 | 46.8 ± 1.9 | 10.6 ± 0.7 | IC50 at 48 h [2]: 156 ± 7.2 µM |
| COc1ccc2c3c([nH]c2c1)C(C)=NCC3 [Compound 10, protonated harmaline] |  |  |  |  |  | IC50 (HEL cells): 21.2 ± 1.1 µM; IC50 (HL-60 cells; 48 h): 45.7 ± 2.1 µM; IC50 (KG1 cells; 48 h): 56.9 ± 2.3 µM; IC50 (U-937 cells [1]; 48 h): 15.3 ± 0.7 µM; IC50 [6]: 132 ± 4.6 µM |
| CCc1cc2nccc3c4ccc(OC)cc4n(c1=O)c23 [Compound 11, luotonin C] | > 200 | 68.3 ± 3 | 87.3 ± 3.7 | 113 ± 5.6 | 49.6 ± 1.9 |  |
| COc1ccc2c3c([nH]c2c1)-c1nc2ccccc2c(=O)n1CC3 [Compound 12, 11-methyoxyl-rutaecarpine] | > 200 | 121 ± 5.5 | 93.8 ± 6.8 | 88.1 ± 3.7 | 55.3 ± 1.7 |  |
| O=c1c(-c2ccc(O)cc2)coc2cc(O)cc(O)c12 [genistein, Genistein] |  |  |  |  |  | cell viability after HMC co-incubation compared with HMC-treated only (U-937 cells [7]): significantly decrease |
| harmol [Compound 4] |  |  |  |  |  | IC50 (HEL cells): 54.6 ± 2.3 µM; IC50 (HL-60 cells; 48 h): 62 ± 2.8 µM; IC50 (KG1 cells; 48 h): 47.7 ± 2.3 µM; IC50 (U-937 cells [1]; 48 h): 46.1 ± 2 µM; IC50 [6]: > 200 µM |
